Reference: patent US20240279202A1 (NURIX THERAPEUTICS, INC., priority 2021, published 2024)

Molecular target: T1, ITK (Mus musculus, UniProt Q03526)
T1 construct: mice were sacrificed and splenocytes were isolated and used to prepare protein lysates; from tissue; host or cells: mouse splenocytes (spleen) after oral dosing
T1 sequence (Q03526 1-625): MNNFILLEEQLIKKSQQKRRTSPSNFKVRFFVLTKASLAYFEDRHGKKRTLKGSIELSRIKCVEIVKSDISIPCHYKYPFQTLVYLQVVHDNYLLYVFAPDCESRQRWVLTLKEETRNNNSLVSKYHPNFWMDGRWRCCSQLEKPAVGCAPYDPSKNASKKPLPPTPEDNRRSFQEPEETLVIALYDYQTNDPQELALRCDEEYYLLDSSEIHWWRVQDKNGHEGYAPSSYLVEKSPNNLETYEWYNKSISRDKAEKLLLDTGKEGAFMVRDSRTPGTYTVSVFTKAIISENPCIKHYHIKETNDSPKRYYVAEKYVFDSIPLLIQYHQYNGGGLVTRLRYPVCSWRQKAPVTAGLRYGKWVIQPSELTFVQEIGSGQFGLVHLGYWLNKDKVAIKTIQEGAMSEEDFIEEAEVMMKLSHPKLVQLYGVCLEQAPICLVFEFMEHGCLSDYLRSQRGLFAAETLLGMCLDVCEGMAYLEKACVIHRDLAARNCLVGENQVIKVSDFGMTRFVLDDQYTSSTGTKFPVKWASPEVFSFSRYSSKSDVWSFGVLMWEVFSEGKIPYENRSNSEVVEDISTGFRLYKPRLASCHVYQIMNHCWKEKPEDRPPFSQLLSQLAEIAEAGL
Assay: Mouse PD assay for ITK degradation (Western blot, splenocytes after oral administration)
Format: in vivo
Settings: percent ITK remaining in mouse splenocytes relative to vehicle, 90 mpk PO, 6 h
Procedure, shortened: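 Mice dosed orally, some compounds at 90 mg/kg; splenocytes harvested after 6 hours (some 24 hours). ITK measured by Western blot of equal-protein lysates, normalized to actin. Values are % ITK remaining relative to vehicle-control mean.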

| Compound | ITK (%) 90 mpk PO, 6 h [%] |
| --- | --- |
| CN(C(=O)CCC1CCN(c2ccc(C(=O)NC3CCC(=O)NC3=O)nc2)C1)c1ccc2cc(-c3n[nH]c4c3C[C@@H]3C(F)(F)[C@]3(C)C4)[nH]c2c1 (stereo partly drawn) [Compound 69, 5-(3-(3-((2-((4aS,5aR)-5,5-difluoro-5a-methyl-1,4,4a,5,5a,6-hexahydrocyclopropa[f]indazol-3-yl)-1H-indol-6-yl)(methyl)amino)-3-oxopropyl)pyrrolidin-1-yl)-N-(2,6-dioxopiperidin-3-yl)picolinamide] | 140 |
| CN(C(=O)CN1CCC2(CC1)CCN(c1ccc3c(c1)C(=O)N(C1CCC(=O)NC1=O)C3=O)C2)c1ccc2cc(-c3n[nH]c4c3C[C@@H]3C(F)(F)[C@]3(C)C4)[nH]c2c1 (stereo partly drawn) [Compound 72, N-(2-((4aS,5aR)-5,5-difluoro-5a-methyl-1,4,4a,5,5a,6-hexahydrocyclopropa[f]indazol-3-yl)-1H-indol-6-yl)-2-(2-(2-(2,6-dioxopiperidin-3-yl)-1,3-dioxoisoindolin-5-yl)-2,8-diazaspiro[4.5]decan-8-yl)-N-methylacetamide] | 116 |
| CN(C(=O)CC1CCN(CC2CCN(c3ccc(C4CCC(=O)NC4=O)cn3)CC2)CC1)c1ccc2cc(-c3n[nH]c4c3C[C@@H]3C(F)(F)[C@]3(C)C4)[nH]c2c1 (stereo partly drawn) [Compound 73, N-(2-((4aS,5aR)-5,5-difluoro-5a-methyl-1,4,4a,5,5a,6-hexahydrocyclopropa[f]indazol-3-yl)-1H-indol-6-yl)-2-(1-((1-(5-(2,6-dioxopiperidin-3-yl)pyridin-2-yl)piperidin-4-yl)methyl)piperidin-4-yl)-N-methylacetamide] | 92 |
| CN(C(=O)CC1CCN(CC2CCN(c3ccc(C(=O)NC4CCC(=O)NC4=O)nc3)CC2)CC1)c1ccc2cc(-c3n[nH]c4c3C[C@@H]3C(F)(F)[C@]3(C)C4)[nH]c2c1 (stereo partly drawn) [Compound 75, 5-(4-((4-(2-((2-((4aS,5aR)-5,5-difluoro-5a-methyl-1,4,4a,5,5a,6-hexahydrocyclopropa[f]indazol-3-yl)-1H-indol-6-yl)(methyl)amino)-2-oxoethyl)piperidin-1-yl)methyl)piperidin-1-yl)-N-(2,6-dioxopiperidin-3-yl)picolinamide] | 137 |
